Tested on: HCV pseudoparticles (genotype 1a HCV E1 and E2 envelope, H77C isolate)
Experiment: microbe, parasite or virus in culture
Type: cell-based
Settings: Hepatitis C virus, Huh-7, 48 h, HCV pseudoparticle infection of Huh7 cells, luciferase 2 days after infection; average of duplicates

Structure (SMILES) | EC50 [nM]
CC(C)(CNC(=O)C(=O)Nc1ccc(-c2ccc(C(F)(F)F)cc2)cc1)CNC(=O)c1ccc(Nc2nc(NC3(c4ccc(Cl)cc4)CC3)nc(OCC(F)(F)F)n2)cc1 [Compound 1594] | 0.05
CN(C)C(=O)C(=O)NC[C@H](NC(=O)c1ccc(Nc2nc(NC3(c4ccc(Cl)cc4)CC3)nc(OCC(F)(F)F)n2)cc1)C(=O)OCCN1CCOCC1 [Compound 1022, (S)-2-morpholinoethyl 2-(4-(4-(1-(4-chlorophenyl)cyclopropylamino)-6-(2,2,2-trifluoroethoxy)-1,3,5-triazin-2-ylamino)benzamido)-3-(2-(dimethylamino)-2-oxoacetamido)propanoate] | 7.11

Same assay, conditions: Hepatitis C virus, Huh-7, 48 h, HCV pseudoparticles (genotype 1a, H77C) in Huh7 cells; average of duplicate; luciferase 2 days after infection

Structure (SMILES) | EC50 [nM]
CC(CNC(=O)C(=O)Nc1cc(F)cc(F)c1)CNC(=O)c1ccc(Nc2nc(NC3(c4ccc(Cl)cc4)CC3)nc(OCC(F)(F)F)n2)cc1 (centres unmarked) [Compound 3469] | 0.035

Same assay, conditions: Hepatitis C virus, Huh-7, 48 h, read-out: Activity (EC50 class), HCV pseudoparticle infection of Huh7 cells, luciferase 2 days after infection; EC50 expressed as class A/B

Structure (SMILES) | EC50 [nM]
O=C(NCC[C@H](NC(=O)c1ccc(Nc2nc(NC3(c4ccc(Cl)cc4)CC3)nc(OCC(F)(F)F)n2)cc1)C(=O)O)C(=O)Nc1cc(F)ccc1F [Compound 1513] | 0.01 to 10
CC(C)(CNC(=O)C(=O)Nc1cccc(C(=O)N2CCCCC2)c1)CNC(=O)c1ccc(Nc2nc(NC3(c4ccc(Cl)cc4)CC3)nc(OCC(F)(F)F)n2)cc1 [Compound 1574] | 0.01 to 10
CC(C)(CNC(=O)C(=O)Nc1cc(F)cc(F)c1)CNC(=O)c1ccc(Nc2nc(NC3(c4ccc(Cl)cc4)CC3)nc(OCC(F)(F)F)n2)cc1 [Compound 1540] | 0.01 to 10
O=C(NCCc1ccncc1)C(=O)NCC[C@H](NC(=O)c1ccc(Nc2nc(NC3(c4ccc(Cl)cc4)CC3)nc(OCC(F)(F)F)n2)cc1)C(=O)O [Compound 1332] | 0.01 to 10
O=C(NCC[C@H](NC(=O)c1ccc(Nc2nc(NC3(c4ccc(Cl)cc4)CC3)nc(OCC(F)(F)F)n2)cc1)C(=O)O)C(=O)Nc1cc(F)cc(F)c1 [Compound 1507] | 0.01 to 10
COC(=O)[C@H](CCNC(=O)C(=O)Nc1cccnc1OC)NC(=O)c1ccc(Nc2nc(NC3(c4ccc(Cl)cc4)CC3)nc(OCC(F)(F)F)n2)cc1 [Compound 1216] | 0.01 to 10
CC(C)(CNC(=O)C(=O)Nc1ccc(-c2ccc(C(F)(F)F)cc2)cc1)CNC(=O)c1ccc(Nc2nc(NC3(c4ccc(Cl)cc4)CC3)nc(OCC(F)(F)F)n2)cc1 [Compound 1594] | 0.01 to 10
O=C(NCC[C@H](NC(=O)c1ccc(Nc2nc(NC3(c4ccc(Cl)cc4)CC3)nc(OCC(F)(F)F)n2)cc1)C(=O)O)C(=O)NCC1(CN2CCCN2)CC1 [Compound 1443] | 0.01 to 10
O=C(NCC[C@H](NC(=O)c1ccc(Nc2nc(NC3(c4ccc(Cl)cc4)CC3)nc(OCC(F)(F)F)n2)cc1)C(=O)O)C(=O)Nc1cc[nH]n1 [Compound 1265] | 0.01 to 10
CC(C)(CNC(=O)C(=O)Nc1ccc(-c2ccccc2)cc1)CNC(=O)c1ccc(Nc2nc(NC3(c4ccc(Cl)cc4)CC3)nc(OCC(F)(F)F)n2)cc1 [Compound 1590] | 0.01 to 10
CN(C)C(=O)C(=O)NC[C@H](NC(=O)c1ccc(Nc2nc(NC3(c4ccc(Cl)cc4)CC3)nc(OCC(F)(F)F)n2)cc1)C(=O)OCCN1CCOCC1 [Compound 1022, (S)-2-morpholinoethyl 2-(4-(4-(1-(4-chlorophenyl)cyclopropylamino)-6-(2,2,2-trifluoroethoxy)-1,3,5-triazin-2-ylamino)benzamido)-3-(2-(dimethylamino)-2-oxoacetamido)propanoate] | 0.01 to 10
COC(=O)[C@H](CCNC(=O)C(=O)Nc1ccc(C(F)(F)F)cc1)NC(=O)c1ccc(Nc2nc(NC3(c4ccc(Cl)cc4)CC3)nc(OCC(F)(F)F)n2)cc1 [Compound 1233] | 0.01 to 10
COC(=O)[C@H](CNC(=O)C(=O)NCCn1ccnc1C)NC(=O)c1ccc(Nc2nc(NC3(c4ccc(Cl)cc4)CC3)nc(OCC(F)(F)F)n2)cc1 [Compound 1301] | 0.01 to 10
COC(=O)[C@H](CNC(=O)C(=O)NCC1CC1)NC(=O)c1ccc(Nc2nc(NC3(c4ccc(Cl)cc4)CC3)nc(OCC(F)(F)F)n2)cc1 [Compound 1461] | 0.01 to 10
COc1ccc(CNC(=O)C(=O)NC[C@H](NC(=O)c2ccc(Nc3nc(NC4(c5ccc(Cl)cc5)CC4)nc(OCC(F)(F)F)n3)cc2)C(=O)O)cc1OC [Compound 1176] | 0.01 to 10
COC(=O)[C@H](CCNC(=O)C(=O)N[C@H]1C[C@H]2C3C2[C@]31C)NC(=O)c1ccc(Nc2nc(NC3(c4ccc(Cl)cc4)CC3)nc(OCC(F)(F)F)n2)cc1 (some centres unmarked) [Compound 1100] | 0.01 to 10
COC(=O)[C@H](CCNC(=O)C(=O)Nc1ccc(-c2ccncc2)cc1)NC(=O)c1ccc(Nc2nc(NC3(c4ccc(Cl)cc4)CC3)nc(OCC(F)(F)F)n2)cc1 [Compound 1517] | 0.01 to 10
COC(=O)[C@H](CNC(=O)C(=O)Nc1cccc(OC)c1)NC(=O)c1ccc(Nc2nc(NC3(c4ccc(Cl)cc4)CC3)nc(OCC(F)(F)F)n2)cc1 [Compound 1250] | 0.01 to 10

Same assay, conditions: Hepatitis C virus, Huh-7, 48 h, read-out: Activity (EC50 class), HCV pseudoparticles, Huh7 cells, luciferase 2 days after infection; average of duplicates

Structure (SMILES) | EC50 [nM]
COC(=O)[C@H](CCNC(=O)C(=O)Nc1cccc(C#CC(C)(C)Cl)c1)NC(=O)c1ccc(Nc2nc(NC3(c4ccc(Cl)cc4)CC3)nc(OCC(F)(F)F)n2)cc1 [Compound 3600] | 0.01 to 10
O=C(NC[C@H](NC(=O)c1ccc(Nc2nc(NC3(c4ccc(Cl)cc4)CC3)nc(OCC(F)(F)F)n2)cc1)C(=O)Cl)C(=O)Nc1cccc(-n2ccnc2)c1 [Compound 3789] | 0.01 to 10
COc1ccc2nc(NC(=O)C(=O)NCC(C)(C)CNC(=O)c3ccc(Nc4nc(NC5(c6ccc(Cl)cc6)CC5)nc(OCC(F)(F)F)n4)cc3)sc2c1 [Compound 3816] | 0.01 to 10
CCN(CC)CCOc1cccc(NC(=O)C(=O)NC[C@H](NC(=O)c2ccc(Nc3nc(NC4(c5ccc(Cl)cc5)CC4)nc(OCC(F)(F)F)n3)cc2)C(=O)Cl)c1 [Compound 3788] | 0.01 to 10

Same assay, conditions: Hepatitis C virus, Huh-7, read-out: Activity (EC50 class), HCV pseudoparticles (genotype 1a, H77C) in Huh7 cells; EC50 expressed as class A/B

Structure (SMILES) | EC50 [nM]
CC(CNC(=O)C(=O)Nc1ccc(F)cc1)CNC(=O)c1ccc(Nc2nc(NC3(c4ccc(Cl)cc4)CC3)nc(OCC(F)(F)F)n2)cc1 (centres unmarked) [Compound 3335] | 0.01 to 10
COC(=O)/C(CCNC(=O)C(=O)Nc1cccc(Cc2ccccc2)c1)=N\C(=O)c1ccc(Nc2nc(NC3(c4ccc(Cl)cc4)CC3)nc(OCC(F)(F)F)n2)cc1 [Compound 3592] | 10 to 1000
CC(C)(CNC(=O)C(=O)Nc1cccc2c1Cc1ccccc1-2)CNC(=O)c1ccc(Nc2nc(NC3(c4ccc(Cl)cc4)CC3)nc(OCC(F)(F)F)n2)cc1 [Compound 3356] | 0.01 to 10
COC(=O)[C@H](CCNC(=O)C(=O)Nc1ccc(OCc2ccccc2)cc1)NC(=O)c1ccc(Nc2nc(NC3(c4ccc(Cl)cc4)CC3)nc(OCC(F)(F)F)n2)cc1 [Compound 3118] | 0.01 to 10
CC(CNC(=O)C(=O)Nc1cc(F)cc(F)c1)CNC(=O)c1ccc(Nc2nc(NC3(c4ccc(Cl)cc4)CC3)nc(OCC(F)(F)F)n2)cc1 (centres unmarked) [Compound 3469] | 0.01 to 10
NC(=O)C(=O)NCCNC(=O)c1ccc(Nc2nc(NC3(c4ccc(Cl)cc4)CC3)nc(OCC(F)(F)F)n2)cc1 [Compound 3380] | 0.01 to 10
CC(C)(CNC(=O)C(=O)Nc1ccc(F)cc1C(F)(F)F)CNC(=O)c1ccc(Nc2nc(NC3(c4ccc(Cl)cc4)CC3)nc(OCC(F)(F)F)n2)cc1 [Compound 3457] | 0.01 to 10
COC(=O)[C@H](CNC(=O)C(=O)Nc1ccc(-c2nc(OC)cc(OC)n2)cc1)NC(=O)c1ccc(Nc2nc(NC3(c4ccc(Cl)cc4)CC3)nc(OCC(F)(F)F)n2)cc1 [Compound 3185] | 0.01 to 10
O=C(NCCC(NC(=O)c1ccc(Nc2nc(NC3(c4ccc(Cl)cc4)CC3)nc(OCC(F)(F)F)n2)cc1)C(=O)O)C(=O)Nc1ccc(Cn2cccn2)cc1 (centres unmarked) [Compound 3533] | 0.01 to 10
COC(=O)[C@H](CNC(=O)C(=O)Nc1ccc(-c2cnco2)cc1)NC(=O)c1ccc(Nc2nc(NC3(c4ccc(Cl)cc4)CC3)nc(OCC(F)(F)F)n2)cc1 [Compound 3093] | 0.01 to 10
CC(C)(CNC(=O)c1ccc(Nc2nc(NC3(c4ccc(Cl)cc4)CC3)nc(OCC(F)(F)F)n2)cc1)NC(=O)C(=O)Nc1ccc(F)cc1 [Compound 3418] | 0.01 to 10
COC(=O)[C@H](CNC(=O)C(=O)Nc1ccc(S(C)(=O)=O)cc1)NC(=O)c1ccc(Nc2nc(NC3(c4ccc(Cl)cc4)CC3)nc(OCC(F)(F)F)n2)cc1 [Compound 3105] | 0.01 to 10
Cn1cnnc1-c1ccc(NC(=O)C(=O)NC[C@H](NC(=O)c2ccc(Nc3nc(NC4(c5ccc(Cl)cc5)CC4)nc(OCC(F)(F)F)n3)cc2)C(=O)O)cc1 [Compound 3283] | 0.01 to 10
